According to BindingDB's records for doi:10.1021/bi7019707 (Emory University, 2008):

What was measured:
Assay in all cases: Inhibition Assay
[1] = biological target: T1, Amine oxidase [flavin-containing] A (Homo sapiens, UniProt P21397)
T1 sequence (P21397 whole entry): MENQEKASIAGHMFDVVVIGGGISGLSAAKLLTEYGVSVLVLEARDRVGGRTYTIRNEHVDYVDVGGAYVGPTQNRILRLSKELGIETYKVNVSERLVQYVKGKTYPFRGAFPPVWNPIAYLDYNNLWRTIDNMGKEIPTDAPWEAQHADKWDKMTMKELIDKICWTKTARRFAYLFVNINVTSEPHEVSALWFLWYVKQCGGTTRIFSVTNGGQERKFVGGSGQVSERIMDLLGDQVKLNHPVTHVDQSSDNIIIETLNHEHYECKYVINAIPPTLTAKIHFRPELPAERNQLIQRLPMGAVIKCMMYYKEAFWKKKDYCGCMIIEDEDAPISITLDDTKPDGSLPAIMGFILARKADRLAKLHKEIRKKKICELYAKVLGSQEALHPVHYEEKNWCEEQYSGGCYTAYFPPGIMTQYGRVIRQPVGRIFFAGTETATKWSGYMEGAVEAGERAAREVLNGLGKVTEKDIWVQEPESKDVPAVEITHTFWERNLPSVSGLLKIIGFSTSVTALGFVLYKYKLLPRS
Excerpt: (§1) Competitive inhibition assay using human and rat MAOs.

[2] = biological target: T2, Amine oxidase [flavin-containing] A (Rattus norvegicus, UniProt P21396)
T2 sequence (P21396 whole entry): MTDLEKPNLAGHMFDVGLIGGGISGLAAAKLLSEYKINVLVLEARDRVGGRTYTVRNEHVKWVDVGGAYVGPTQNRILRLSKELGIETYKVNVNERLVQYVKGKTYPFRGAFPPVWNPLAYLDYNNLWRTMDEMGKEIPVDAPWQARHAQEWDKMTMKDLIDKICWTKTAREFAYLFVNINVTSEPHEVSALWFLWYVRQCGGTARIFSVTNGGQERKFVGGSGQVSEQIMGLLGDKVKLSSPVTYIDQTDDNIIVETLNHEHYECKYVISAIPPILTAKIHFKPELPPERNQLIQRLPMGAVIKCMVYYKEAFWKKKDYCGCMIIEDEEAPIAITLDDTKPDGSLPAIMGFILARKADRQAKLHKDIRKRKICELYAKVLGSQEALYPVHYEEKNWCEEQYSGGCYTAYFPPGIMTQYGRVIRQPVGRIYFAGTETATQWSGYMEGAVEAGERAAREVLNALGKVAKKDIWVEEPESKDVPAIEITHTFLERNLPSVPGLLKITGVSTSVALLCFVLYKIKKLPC
Excerpt: as §1

[3] = biological target: T3, Amine oxidase [flavin-containing] B (Homo sapiens, UniProt P27338)
T3 sequence (P27338 whole entry): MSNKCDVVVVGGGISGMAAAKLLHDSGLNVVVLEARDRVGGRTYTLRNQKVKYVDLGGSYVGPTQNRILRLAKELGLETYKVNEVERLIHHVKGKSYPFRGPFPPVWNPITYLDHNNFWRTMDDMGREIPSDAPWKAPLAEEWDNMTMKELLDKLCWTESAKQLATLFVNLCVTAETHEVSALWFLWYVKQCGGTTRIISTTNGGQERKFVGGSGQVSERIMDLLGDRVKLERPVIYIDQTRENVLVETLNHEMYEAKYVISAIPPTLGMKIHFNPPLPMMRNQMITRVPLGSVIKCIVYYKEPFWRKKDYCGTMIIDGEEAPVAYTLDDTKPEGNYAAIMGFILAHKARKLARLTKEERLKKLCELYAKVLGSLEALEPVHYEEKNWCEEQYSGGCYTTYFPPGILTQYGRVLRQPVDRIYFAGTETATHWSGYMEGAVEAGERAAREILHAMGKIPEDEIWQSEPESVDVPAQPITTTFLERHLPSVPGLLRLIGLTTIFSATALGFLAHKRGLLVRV
Excerpt: as §1

[4] = biological target: T4, Amine oxidase [flavin-containing] B (Rattus norvegicus, UniProt P19643)
T4 sequence (P19643 whole entry): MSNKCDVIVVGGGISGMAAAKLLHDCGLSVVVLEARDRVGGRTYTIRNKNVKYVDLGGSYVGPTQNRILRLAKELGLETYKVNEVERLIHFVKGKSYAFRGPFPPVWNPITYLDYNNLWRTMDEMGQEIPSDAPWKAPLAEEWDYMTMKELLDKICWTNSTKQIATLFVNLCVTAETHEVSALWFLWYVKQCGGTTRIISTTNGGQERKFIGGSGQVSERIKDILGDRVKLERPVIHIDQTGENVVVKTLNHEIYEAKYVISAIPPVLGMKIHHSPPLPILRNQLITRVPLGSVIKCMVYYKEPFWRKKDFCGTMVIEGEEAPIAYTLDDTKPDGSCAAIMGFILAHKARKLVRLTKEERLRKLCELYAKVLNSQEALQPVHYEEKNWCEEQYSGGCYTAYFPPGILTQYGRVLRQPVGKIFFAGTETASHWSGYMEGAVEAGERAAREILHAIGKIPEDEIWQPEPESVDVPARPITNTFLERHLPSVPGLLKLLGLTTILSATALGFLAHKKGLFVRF
Excerpt: as §1

Ki [1]: 212 µM | Ki [2]: 151 µM | Ki [3]: 22 µM | Ki [4]: 107 µM
Compound: C#CCN(C)Cc1ccc(CC(=O)NC2CC(C)(C)N(O)C(C)(C)C2)cc1 [ParSL]
